“Also recorded” adds a separate entry of the source.
Molecular target: T1, Jhdm2a (Homo sapiens, UniProt Q9Y4C1)
T1 construct: expressed in transfected cells; host or cells: 293T cells
T1 sequence (Q9Y4C1 1-1321): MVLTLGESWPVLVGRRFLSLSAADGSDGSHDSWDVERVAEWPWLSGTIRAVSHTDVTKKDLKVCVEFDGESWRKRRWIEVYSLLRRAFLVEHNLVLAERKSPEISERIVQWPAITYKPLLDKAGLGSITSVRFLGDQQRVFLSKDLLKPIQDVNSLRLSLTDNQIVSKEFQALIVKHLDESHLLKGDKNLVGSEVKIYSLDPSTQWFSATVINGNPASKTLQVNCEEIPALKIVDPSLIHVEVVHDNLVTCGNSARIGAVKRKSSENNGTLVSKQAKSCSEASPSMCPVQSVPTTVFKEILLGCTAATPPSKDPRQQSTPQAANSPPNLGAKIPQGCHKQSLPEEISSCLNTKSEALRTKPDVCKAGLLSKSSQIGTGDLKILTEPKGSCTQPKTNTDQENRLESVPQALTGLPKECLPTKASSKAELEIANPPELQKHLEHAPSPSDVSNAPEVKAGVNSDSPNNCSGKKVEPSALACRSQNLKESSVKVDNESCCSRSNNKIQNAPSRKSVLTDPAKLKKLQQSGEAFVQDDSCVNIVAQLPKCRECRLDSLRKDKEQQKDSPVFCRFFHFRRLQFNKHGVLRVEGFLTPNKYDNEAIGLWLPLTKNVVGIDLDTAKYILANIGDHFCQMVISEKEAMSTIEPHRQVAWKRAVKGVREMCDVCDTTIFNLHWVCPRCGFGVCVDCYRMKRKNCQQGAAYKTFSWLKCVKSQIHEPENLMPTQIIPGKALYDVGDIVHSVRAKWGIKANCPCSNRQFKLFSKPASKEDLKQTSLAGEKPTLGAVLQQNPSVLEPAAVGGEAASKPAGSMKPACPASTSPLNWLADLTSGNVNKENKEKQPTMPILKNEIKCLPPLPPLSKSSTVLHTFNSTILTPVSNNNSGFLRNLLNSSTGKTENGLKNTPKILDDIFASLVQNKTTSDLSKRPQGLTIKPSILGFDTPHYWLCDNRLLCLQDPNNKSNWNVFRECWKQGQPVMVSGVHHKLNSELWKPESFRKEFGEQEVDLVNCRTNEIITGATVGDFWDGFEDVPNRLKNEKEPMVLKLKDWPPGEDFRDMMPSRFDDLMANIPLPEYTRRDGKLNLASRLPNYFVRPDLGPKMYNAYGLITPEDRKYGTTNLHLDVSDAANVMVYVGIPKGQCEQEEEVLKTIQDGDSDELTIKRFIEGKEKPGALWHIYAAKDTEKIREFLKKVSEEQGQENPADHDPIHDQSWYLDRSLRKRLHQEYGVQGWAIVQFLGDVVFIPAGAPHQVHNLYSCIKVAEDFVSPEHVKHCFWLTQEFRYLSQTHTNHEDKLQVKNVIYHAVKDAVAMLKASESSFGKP
Experiment: Immunolabeling assay of Jhdm2a-induced H3K9 demethylation in 293T cells
Assay type: cell-based
Conditions: 10 μM; 293T cells transfected with Jhdm2a-EGFP; vs DMSO
Description: (A) Inhibition of Jhdm2a induced histone demethylation by DMOG. Blocking effects of DMOG on Jhdm2a were examined in 293T cells transfected with a plasmid expressing Jhdm2a-EGFP fusion protein. In control cells treated with DMSO, histone 3 lysine 9 dimethylation (H3K9diM) immunostaining signal was lost in Jhdm2a-GFP transfected cells (arrows). […] DAPI labels all cell nuclei. Scale bar: 20 μm. (B-D) show DMOG attenuates ESC-induced reactivation of Oct4 expression from adult NSCs. […] Representative plots from multiple experiments are shown (B). Reprogramming frequencies from multiple experiments were quantified (C) for fusion population with the 48-hour treatment of DMSO or DMOG. Data represent mean±SEM. (n=3; ** P<0.01, Student's t-test). Shown in (D) is the cumulative distribution plot of DsRed+ population with graded GFP fluorescence intensities for comparison of the reprogramming efficacy in the presence of DMSO or DMOG (n=3 experiments; * P<0.01, Kolmogorov-Smirnov test).
To confirm the blocking effects of DMOG on histone demethylases, an immuno labeling assay previously developed for JHDM2A was used. Overexpression of Jhdm2a in heterologous cell lines led to dramatic loss of H3K9 dimethylation, which was blocked by the DMOG treatment (10 μM FIG. 6A). […]

COC(=O)CNC(=O)C(=O)OC [DMOG, dimethyloxalylglycine]
Jhdm2a-induced loss of H3K9 dimethylation: blocked; also recorded: H3K9 dimethylation signals are present in all cells

— patent publication US20110136145A1, “METHODS FOR PROMOTING FUSION AND REPROGRAMMING OF SOMATIC CELLS” (THE JOHNS HOPKINS UNIVERSITY, priority 2008, published 2011)
